Results published in PubChem BioAssay (NCI).
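Interpolation was linear, between the two tested concentrations surrounding the appropriate level; five concentrations were tested over 48 hours in 96-well plates. TGI is the concentration that stops growth completely.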

Legend:
Test in all cases: NCI-60 cell line screen, 48 h
[1] = system: RXF-631 renal
[2] = system: UO-31 renal
[3] = system: SK-MEL-28 melanoma
[4] = system: OVCAR-8 ovarian
[5] = system: OVCAR-5 ovarian
[6] = system: HL-60(TB) leukemia
[7] = system: 786-0 renal
[8] = system: KM12 colon
[9] = system: UACC-62 melanoma
[10] = system: SR leukemia
[11] = system: XF 498 CNS
[12] = system: SW-620 colon
[13] = system: SF-539 CNS
[14] = system: HCC-2998 colon
[15] = system: CCRF-CEM leukemia
[16] = system: TK-10 renal
[17] = system: UACC-257 melanoma
[18] = system: MOLT-4 leukemia
[19] = system: CAKI-1 renal
[20] = system: NCI-H23 lung
[21] = system: LXFL 529 NSCLC
[22] = system: SK-OV-3 ovarian
[23] = system: SN12C renal
[24] = system: NCI-H226 lung
[25] = system: SF-295 CNS
[26] = system: HOP-62 NSCLC
[27] = system: OVCAR-3 ovarian
[28] = system: HCT-116 colon
[29] = system: SF-268 CNS
[30] = system: A549 NSCLC
[31] = system: HCT-15 colon
[32] = system: SNB-19 CNS
[33] = system: OVCAR-4 ovarian
[34] = system: EKVX NSCLC
[35] = system: M19-MEL melanoma
[36] = system: COLO 205 colon
[37] = system: NCI-H522 lung
[38] = system: ACHN renal
[39] = system: KM20L2 colon
[40] = system: K-562 leukemia
[41] = system: DLD-1 colon
[42] = system: SK-MEL-2 melanoma
[43] = system: LOX IMVI melanoma
[44] = system: RXF 393 renal
[45] = system: MALME-3M melanoma
[46] = system: IGROV1 ovarian
[47] = system: M14 melanoma
[48] = system: DMS 114 small cell lung
[49] = system: DMS 273 small cell lung
[50] = system: NCI-H460 lung
[51] = system: U251 CNS
[52] = system: HT29 colon
[53] = system: HOP-92 NSCLC
[54] = system: RPMI-8226 leukemia
[55] = system: SK-MEL-5 melanoma
[56] = system: SNB-75 CNS

Cc1nc(-c2nc(C)c(C(=O)/C=C/c3ccc(N(C)C)cc3)s2)sc1C(=O)/C=C/c1ccc(N(C)C)cc1
TGI [1]: > 100 µM | TGI [2]: > 100 µM | TGI [3]: > 100 µM | TGI [4]: > 100 µM | TGI [5]: > 100 µM | TGI [6]: > 100 µM | TGI [7]: > 100 µM | TGI [8]: > 100 µM | TGI [9]: 58 µM | TGI [10]: > 100 µM | TGI [11]: 44.6 µM | TGI [12]: > 100 µM | TGI [13]: > 100 µM | TGI [14]: > 100 µM | TGI [15]: > 100 µM | TGI [16]: > 100 µM | TGI [17]: > 100 µM | TGI [18]: > 100 µM | TGI [19]: > 100 µM | TGI [20]: > 100 µM | TGI [21]: > 100 µM | TGI [22]: > 100 µM | TGI [23]: > 100 µM | TGI [24]: > 100 µM | TGI [25]: > 100 µM | TGI [26]: > 100 µM | TGI [27]: > 100 µM | TGI [28]: > 100 µM | TGI [29]: > 100 µM | TGI [30]: > 100 µM | TGI [31]: > 100 µM | TGI [32]: > 100 µM | TGI [33]: > 100 µM | TGI [34]: > 100 µM | TGI [35]: > 100 µM | TGI [36]: > 100 µM | TGI [37]: 89.2 µM | TGI [38]: > 100 µM | TGI [39]: > 100 µM | TGI [40]: > 100 µM | TGI [41]: > 100 µM | TGI [42]: > 100 µM | TGI [43]: > 100 µM | TGI [44]: > 100 µM | TGI [45]: > 100 µM | TGI [46]: > 100 µM | TGI [47]: > 100 µM | TGI [48]: > 100 µM | TGI [49]: > 100 µM | TGI [50]: > 100 µM | TGI [51]: > 100 µM

CN(O)C(=O)c1ccccc1
TGI [1]: > 100 µM | TGI [2]: > 100 µM | TGI [3]: > 100 µM | TGI [4]: > 100 µM | TGI [5]: > 100 µM | TGI [6]: > 100 µM | TGI [7]: > 100 µM | TGI [8]: > 100 µM | TGI [9]: > 100 µM | TGI [10]: > 100 µM | TGI [11]: > 100 µM | TGI [12]: > 100 µM | TGI [13]: > 100 µM | TGI [14]: > 100 µM | TGI [15]: > 100 µM | TGI [16]: > 100 µM | TGI [17]: > 100 µM | TGI [18]: > 100 µM | TGI [52]: > 100 µM | TGI [19]: > 100 µM | TGI [20]: > 100 µM | TGI [21]: > 100 µM | TGI [22]: > 100 µM | TGI [23]: > 100 µM | TGI [24]: > 100 µM | TGI [25]: > 100 µM | TGI [53]: > 100 µM | TGI [54]: > 100 µM | TGI [26]: > 100 µM | TGI [27]: > 100 µM | TGI [28]: > 100 µM | TGI [29]: > 100 µM | TGI [30]: > 100 µM | TGI [32]: > 100 µM | TGI [33]: > 100 µM | TGI [35]: > 100 µM | TGI [36]: > 100 µM | TGI [55]: > 100 µM | TGI [37]: > 100 µM | TGI [38]: > 100 µM | TGI [39]: > 100 µM | TGI [40]: > 100 µM | TGI [41]: > 100 µM | TGI [43]: > 100 µM | TGI [44]: > 100 µM | TGI [45]: > 100 µM | TGI [46]: > 100 µM | TGI [47]: > 100 µM | TGI [48]: > 100 µM | TGI [49]: > 100 µM | TGI [50]: > 100 µM | TGI [56]: > 100 µM | TGI [51]: > 100 µM
